ChEMBL document CHEMBL4311944, “Discovery of 3-Oxabicyclo[4.1.0]heptane, a Non-nitrogen Containing Morpholine Isostere, and Its Application in Novel Inhibitors of the PI3K-AKT-mTOR Pathway” (J Med Chem, 2019)
In brackets after ≈: the same amount, converted by molar mass.

Assays:
[1] = Intrinsic clearance in rat microsomes; type: ADME, Microsome
[2] = Intrinsic clearance in rat hepatocytes; type: ADME, cell-based, Hepatocyte
[3] = Lipophilicity, logP of the compound by reversed phase column chromatography; type: physicochemical
[4] = Intrinsic clearance in human microsomes; type: ADME, Microsome
[5] = Intrinsic clearance in human hepatocytes; type: ADME, cell-based, Hepatocyte
[6] = Inhibition of PI3K/AKT/mTOR in human lung fibroblasts assessed as reduction in AKT phosphorylation at serine473 residue preincubated for 1 hr followed by PDGF-BB stimulation and measured after 10 mins by electrochemiluminescence method
[7] = Inhibition of ligand binding to mTORC1/mTORC2 in human HuT78 cells after 2 hrs by kinobead competition binding assay; type: cell-based
[8] = target: T1, Phosphatidylinositol 4,5-bisphosphate 3-kinase catalytic subunit delta isoform (Homo sapiens, UniProt O00329); test: Inhibition of PI3Kdelta (unknown origin) using PIP2 as substrate preincubated for 15 mins followed by substrate addition and measured after 1 hr by HTRF assay
T1 sequence (O00329 whole entry): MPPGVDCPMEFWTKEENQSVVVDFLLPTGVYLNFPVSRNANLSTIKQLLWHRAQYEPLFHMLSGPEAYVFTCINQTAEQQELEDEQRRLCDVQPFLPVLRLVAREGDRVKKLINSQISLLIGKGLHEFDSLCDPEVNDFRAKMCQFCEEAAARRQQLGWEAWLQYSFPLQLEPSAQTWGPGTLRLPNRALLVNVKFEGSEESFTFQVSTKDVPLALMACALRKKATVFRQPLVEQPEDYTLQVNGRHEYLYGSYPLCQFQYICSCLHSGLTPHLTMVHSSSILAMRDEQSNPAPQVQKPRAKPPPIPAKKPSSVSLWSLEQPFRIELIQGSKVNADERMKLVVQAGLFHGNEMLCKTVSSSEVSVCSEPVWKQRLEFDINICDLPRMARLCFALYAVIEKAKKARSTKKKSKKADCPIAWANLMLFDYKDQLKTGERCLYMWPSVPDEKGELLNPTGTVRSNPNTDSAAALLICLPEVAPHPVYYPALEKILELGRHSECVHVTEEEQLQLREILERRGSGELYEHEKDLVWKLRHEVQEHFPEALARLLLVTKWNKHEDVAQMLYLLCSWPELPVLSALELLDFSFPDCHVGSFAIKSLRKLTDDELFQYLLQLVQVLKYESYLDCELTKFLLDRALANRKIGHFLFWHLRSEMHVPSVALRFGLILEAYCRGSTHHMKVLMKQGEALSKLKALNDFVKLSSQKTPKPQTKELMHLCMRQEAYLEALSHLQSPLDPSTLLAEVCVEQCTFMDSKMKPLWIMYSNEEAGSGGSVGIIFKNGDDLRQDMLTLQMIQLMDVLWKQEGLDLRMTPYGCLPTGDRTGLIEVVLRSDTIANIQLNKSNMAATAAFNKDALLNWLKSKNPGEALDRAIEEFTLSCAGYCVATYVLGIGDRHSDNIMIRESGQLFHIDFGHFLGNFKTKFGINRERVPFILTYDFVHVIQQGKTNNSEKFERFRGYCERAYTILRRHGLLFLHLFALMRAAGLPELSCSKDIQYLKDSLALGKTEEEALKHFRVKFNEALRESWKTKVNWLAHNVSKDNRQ

[9] = Kinetic solubility of the compound in pH 7.4 phosphate buffered saline measured after 1 hr; type: physicochemical; conditions: read-out: Kinetic_solubility
[10] = target: Phosphatidylinositol 4,5-bisphosphate 3-kinase catalytic subunit alpha isoform (Homo sapiens, UniProt P42336)
Sequence of Phosphatidylinositol 4,5-bisphosphate 3-kinase catalytic subunit alpha isoform (P42336 whole entry, canonical isoform): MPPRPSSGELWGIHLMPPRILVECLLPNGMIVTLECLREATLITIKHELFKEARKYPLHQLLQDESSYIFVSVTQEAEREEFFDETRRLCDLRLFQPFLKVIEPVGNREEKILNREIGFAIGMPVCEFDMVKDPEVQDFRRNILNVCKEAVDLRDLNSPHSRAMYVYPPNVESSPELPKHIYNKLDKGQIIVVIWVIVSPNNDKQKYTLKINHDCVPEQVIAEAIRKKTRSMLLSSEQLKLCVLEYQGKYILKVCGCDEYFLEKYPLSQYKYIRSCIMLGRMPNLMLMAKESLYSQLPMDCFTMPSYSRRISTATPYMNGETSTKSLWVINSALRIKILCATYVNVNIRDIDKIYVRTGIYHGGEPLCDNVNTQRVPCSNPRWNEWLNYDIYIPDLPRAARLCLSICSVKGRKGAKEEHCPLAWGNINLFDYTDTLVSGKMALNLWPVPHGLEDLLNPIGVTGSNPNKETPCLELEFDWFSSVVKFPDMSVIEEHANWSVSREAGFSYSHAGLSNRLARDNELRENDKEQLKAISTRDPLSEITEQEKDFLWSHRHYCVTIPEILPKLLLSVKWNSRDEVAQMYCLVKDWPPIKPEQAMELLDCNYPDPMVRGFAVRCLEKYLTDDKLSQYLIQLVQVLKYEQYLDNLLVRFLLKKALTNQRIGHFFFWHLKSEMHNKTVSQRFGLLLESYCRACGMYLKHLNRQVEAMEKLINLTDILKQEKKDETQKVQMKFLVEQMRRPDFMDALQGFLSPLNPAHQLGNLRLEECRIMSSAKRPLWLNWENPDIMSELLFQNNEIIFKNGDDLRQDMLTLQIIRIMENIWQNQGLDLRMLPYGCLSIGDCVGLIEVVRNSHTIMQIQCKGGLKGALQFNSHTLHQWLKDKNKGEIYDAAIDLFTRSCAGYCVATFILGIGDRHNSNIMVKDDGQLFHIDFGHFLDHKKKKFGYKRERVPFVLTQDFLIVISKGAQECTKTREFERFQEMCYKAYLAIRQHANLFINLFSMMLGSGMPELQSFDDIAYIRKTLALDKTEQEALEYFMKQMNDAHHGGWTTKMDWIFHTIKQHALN
Description: Inhibition of PI3Kalpha (unknown origin) using PIP2 as substrate preincubated for 15 mins followed by substrate addition and measured after 1 hr by HTRF assay

Row | CL [1] | CLH [2] | logP [3] | CL [4] | CLH [5] | pIC50 [7] | IC50 [8] | solubility kinetic at 1 h [9] | IC50 [10] | Structure (SMILES) | IC50 [6]
1 | 0.8 mL/min/g | 2.8 mL/min/g | 3.6 | 0.9 mL/min/g | 0.9 mL/min/g | 8.4 | – | – | – | C[C@H]1COCCN1c1cc(C(C)(C)S(C)(=O)=O)nc(-c2ccc(NC(=S)NCCO)cc2)n1 | 0.0398 µM
2 | 1.4 mL/min/g | 13 mL/min/g | 3.9 | 3.1 mL/min/g | 5.1 mL/min/g | 8.6 | 31.6 µM | 173 µg/mL (≈ 353 µM) | 25.1 µM | CC(C)(c1cc([C@]23CCOC[C@H]2C3)nc(-c2ccc(NC(=S)NCCO)cc2)n1)S(C)(=O)=O | 0.0316 µM
3 | 13.6 mL/min/g | – | 3.9 | 1.5 mL/min/g | – | 6.1 | 25.1 µM | 125 µg/mL (≈ 369 µM) | 25.1 µM | CCNC(=O)Nc1ccc(-c2nccc([C@]34CCOC[C@H]3C4)n2)cc1 | 2 µM
